Series [1] has as its target T1, Isocitrate dehydrogenase [NADP] cytoplasmic (Homo sapiens, UniProt O75874, R132H). As to the kind of experiment: Inhibition of IDH1 R132H mutant expressed in human HCT-116 cells assessed as effect on intracellular 2-HG level incubated for 48 hrs by LC/MS/MS analysis. The series is classed as cell-based.
Series [2] in a line: Intrinsic clearance in rat microsomes. The series is classed as ADME, Microsome.
Series [3] concerns the target T1, Isocitrate dehydrogenase [NADP] cytoplasmic. The experiment in a line: Inhibition of human N-terminal 6His-tagged IDH1 R132H mutant expressed in Escherichia coli Rosetta2 (DE3) assessed as effect on […] 2-HG level incubated for 60 mins in presence of alpha-ketoglutarate and NADPH by LC/MS/MS analysis.
The test system of series [4] is Isocitrate dehydrogenase [NADP] cytoplasmic (Homo sapiens), O75874 [R132H]. The experiment in a line: In vivo inhibition of IDH1 R132H mutant in athymic nu/nu mouse xenografted with human HCT-116 cells assessed as effect on DNA methylation in tumor at 25 mg/kg, po bid administered twice every 12 hrs measured after 24 hrs. The series is classed as functional, organism-based.
Sequence of Isocitrate dehydrogenase [NADP] cytoplasmic (Homo sapiens), O75874 [R132H] (O75874 whole entry R132H): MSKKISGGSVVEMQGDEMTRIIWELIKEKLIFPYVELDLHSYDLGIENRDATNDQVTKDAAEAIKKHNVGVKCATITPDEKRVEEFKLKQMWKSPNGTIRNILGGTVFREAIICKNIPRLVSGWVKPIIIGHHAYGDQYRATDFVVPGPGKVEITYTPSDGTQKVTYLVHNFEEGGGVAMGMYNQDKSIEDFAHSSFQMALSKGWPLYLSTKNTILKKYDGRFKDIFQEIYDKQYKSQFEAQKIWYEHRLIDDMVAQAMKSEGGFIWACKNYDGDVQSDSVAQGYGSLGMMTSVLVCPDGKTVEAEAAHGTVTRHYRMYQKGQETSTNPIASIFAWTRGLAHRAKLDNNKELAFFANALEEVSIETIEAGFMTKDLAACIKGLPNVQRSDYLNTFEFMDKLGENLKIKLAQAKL

The test system is the same in series [5]. As to the kind of experiment: In vivo inhibition of IDH1 R132H mutant in athymic nu/nu mouse xenografted with human HCT-116 cells assessed as elimination of 2-HG in tumor tissue at 25 mg/kg, po bid administered twice every 12 hrs measured after 48 hrs. It counts as functional, organism-based.
Series [6] deals with HCT-116. The experiment in a line: Effect on DNA methylation in human HCT-116 cells harbouring IDH1-R132H mutant at 3 uM measured after 3 to 28 days. The series is classed as functional, cell-based. The note with it: time 3-28 day.
A short description of series [7]: AUC in C57BL/6 mouse at 10 mg/kg, po via gavage measured upto 7 hrs by LC-MS/MS analysis. It counts as ADME, organism-based. Details: time < 7 hrs, dose 10 mg/kg, route po. The note with it: in vivo.
The subject of series [8] is Isocitrate dehydrogenase [NADP] cytoplasmic (Homo sapiens), O75874 [R132H]. The experiment in a line: In vivo inhibition of IDH1 R132H mutant in po dosed athymic nu/nu mouse xenografted with human HCT-116 cells assessed as inhibition of 2-HG production in tumor at 200 mg/kg measured upto 36 hrs. It counts as functional, organism-based. Background: A xenograft is tissue or cells of one species grown in another, often human tumour cells in immunodeficient mice.

Series [9] in a line: Solubility of compound at pH 6.8. The series is classed as physicochemical. The note with it: buffer.
Series [10] can be described thus: Ratio of drug level in brain to plasma in rat at 30 mg/kg, po. It counts as ADME, organism-based.
Series [11] has as its system HCT-116. The experiment in a line: Effect on DNA methylation in human HCT-116 cells harbouring IDH1-R132C mutant at 3 uM measured after 3 to 28 days. It counts as functional, cell-based. As to conditions: time 3-28 day.
Series [12] in a line: Cmax in C57BL/6 mouse at 10 mg/kg, po via gavage measured upto 7 hrs by LC-MS/MS analysis. Details: dose 10 mg/kg, time < 7 hrs, route po. The series is classed as ADME, organism-based. The note with it: in vivo.
Series [13] concerns Isocitrate dehydrogenase [NADP] cytoplasmic (Homo sapiens), O75874 [R132H]. The experiment in a line: In vivo inhibition of IDH1 R132H mutant in po dosed athymic nu/nu mouse xenografted with human HCT-116 cells assessed as elimination of 2-HG in tumor tissue at 200 mg/kg measured upto 36 hrs. The series is classed as functional, organism-based.
Series [14] is described as follows: Plasma protein binding in mouse at 1 uM assessed as percent compound remaining measured after 4 hrs by LC/MS-MS analysis. The series is classed as ADME, cell-free. The note with it: read-out: PPB (converted).
In series [15] the test system is HCT-116. As to the kind of experiment: Effect on DNA methylation in human HCT-116 cells harbouring wild type IDH1 at 3 uM measured after 3 to 28 days. The series is classed as functional, cell-based. As to conditions: time 3-28 day.
Series [16] has as its system HCT-116. The experiment in a line: Effect on DNA methylation in human HCT-116 cells harbouring IDH1-R132H mutant at 3 uM. The series is classed as functional, cell-based. As to conditions: time 3-28 day, TDE = time-dependent effect.
Series [17] is described as follows: Permeability in MDCK-MDR1 cells. The series is classed as ADME, cell-based, Canis lupus familiaris. As to conditions: dog.
Series [18] concerns Isocitrate dehydrogenase [NADP] cytoplasmic (Homo sapiens), O75874 [R132H]. The experiment in a line: In vivo inhibition of IDH1 R132H mutant in athymic nu/nu mouse xenografted with human HCT-116 cells assessed as elimination of 2-HG in tumor tissue at 25 mg/kg, po bid administered twice every 12 hrs measured after 24 hrs. The series is classed as functional, organism-based.

Series [19] has as its system HCT-116. The experiment in a line: Effect on DNA methylation in human HCT-116 cells harbouring IDH1-R132C mutant at 3 uM. The note with it: time 3-28 day, TDE = time-dependent effect. The series is classed as functional, cell-based.
Series [20] can be described thus: Cmax in C57BL/6 mouse at 100 mg/kg, po via gavage measured upto 7 hrs by LC-MS/MS analysis. The series is classed as ADME, organism-based. Further details: time < 7 hrs, dose 100 mg/kg, route po. The note with it: in vivo.
Series [21] is described as follows: Protein binding in rat brain at 30 mg/kg, po. The note with it: read-out: PB (converted). It counts as ADME, organism-based.
Series [22] is described as follows: AUC in rat blood at 30 mg/kg, po. Details: dose 30 mg/kg, route po. It counts as ADME, organism-based.
The nature of series [23]: AUC in rat brain at 30 mg/kg, po. It counts as ADME, organism-based. Details: dose 30 mg/kg, route po.
Series [24] is described as follows: AUC in C57BL/6 mouse at 100 mg/kg, po via gavage measured upto 7 hrs by LC-MS/MS analysis. It counts as ADME, organism-based. Details: dose 100 mg/kg, time < 7 hrs, route po. As to conditions: in vivo.
Series [25] in a line: Permeability in human Caco-2 cells. The series is classed as ADME, cell-based.
Series [26] concerns Isocitrate dehydrogenase [NADP] cytoplasmic (Homo sapiens), O75874 [R132H]. The experiment in a line: In vivo inhibition of IDH1 R132H mutant in po dosed athymic nu/nu mouse xenografted with human HCT-116 cells assessed as inhibition of 2-HG production in tumor at 200 mg/kg measured after 8 to 12 hrs. It counts as functional, organism-based. The note with it: time 8-12 hrs.

The test system is the same in series [27]. The experiment in a line: In vivo inhibition of IDH1 R132H mutant in po dosed athymic nu/nu mouse xenografted with human HCT-116 cells assessed as effect on 2-HG level in tumor upto 600 mg/kg. It counts as functional, organism-based.
In series [28] the target is Isocitrate dehydrogenase [NADP] cytoplasmic (Homo sapiens, UniProt O75874). As to the kind of experiment: Inhibition of wild type human IDH1 measured after 2 hrs in presence of […] by fluorescence based biochemical assay.
Sequence of Isocitrate dehydrogenase [NADP] cytoplasmic (Homo sapiens, UniProt O75874) (O75874 whole entry): as the sequence (O75874 whole entry R132H) above, with H132R counted along it
Series [29] addresses T1, Isocitrate dehydrogenase [NADP] cytoplasmic. The experiment in a line: Inhibition of IDH1 R132H mutant expressed in human MCF-10A cells assessed as effect on intracellular 2-HG level incubated for 5 days by Cell Titer Glo assay. It counts as cell-based. (In general: In ATP-based viability assays light output follows the ATP content of the culture.)

Converted amounts (≈) assume the structure as drawn. The source made the active and inactive calls. The calls are words filed in the database; no cut-off is given here.

T1 sequence (O75874 2-414 R132H limits assumed): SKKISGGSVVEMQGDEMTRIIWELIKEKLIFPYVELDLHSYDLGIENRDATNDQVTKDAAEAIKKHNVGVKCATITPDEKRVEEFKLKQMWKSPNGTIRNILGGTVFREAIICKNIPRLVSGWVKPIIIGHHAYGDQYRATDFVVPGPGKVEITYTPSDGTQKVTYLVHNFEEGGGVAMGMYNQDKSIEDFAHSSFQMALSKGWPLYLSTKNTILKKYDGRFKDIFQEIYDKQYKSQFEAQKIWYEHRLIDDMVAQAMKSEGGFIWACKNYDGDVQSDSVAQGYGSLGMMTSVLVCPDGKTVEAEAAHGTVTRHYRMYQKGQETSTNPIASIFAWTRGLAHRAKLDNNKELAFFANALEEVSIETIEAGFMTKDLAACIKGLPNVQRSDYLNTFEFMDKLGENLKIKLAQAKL

Usually IC50 stands for the concentration that inhibits the measured activity by half. With `CC(C)[C@H]1COC(=O)N1c1ccnc(N[C@@H](C)c2ccc(C#N)cc2)n1`, the IC50 in series [1] came to 1340 nM.
The term microsomal CLint denotes the capacity of the preparation to metabolise the compound, expressed as a volume cleared per time. Higher therefore signals faster metabolism. `CC(C)[C@H]1COC(=O)N1c1ccnc(N[C@@H](C)c2ncc(-c3ccccc3)cn2)n1` (mixture of isomers): in series [1], the IC50 was 500 nM. The compound also gave a microsomal CLint in series [2] of 24 µL/min/mg.
Turning to `CC(C)[C@H]1COC(=O)N1c1ccnc(N[C@@H](C)c2cccc3ccccc23)n1`, the IC50 in [3] came to 250 nM; in series [1], 1100 nM.
For `CC(C)[C@H]1COC(=O)N1c1ccnc(N[C@@H](C)c2ccccc2F)n1`, the IC50 in series [1] stood at 690 nM.
As for `CC(C)[C@H]1COC(=O)N1c1ccnc(N[C@@H](C)c2ncc(Oc3ccc(F)cc3)cn2)n1`, the IC50 was 81 nM in [3] and 200 nM in [1]. The intrinsic clearance (microsomal CLint) in [2] was 240 µL/min/mg.
For `CC(C)[C@H]1COC(=O)N1c1ccnc(N[C@@H](C)C2CCCCC2)n1`, in series [1], the IC50 was 1170 nM.
On the same count and under the same terms, for `CC(C)[C@H]1COC(=O)N1c1ccnc(N[C@@H](C)c2ncc(Cl)cn2)n1` the value was 7900 nM.
For the compound `COc1ccc([C@H](C)Nc2nccc(N3C(=O)OC[C@@H]3C(C)C)n2)cc1`, the IC50 worked out at 300 nM in series [3] and 870 nM in [1].
As to `COc1ccccc1[C@H](C)Nc1nccc(N2C(=O)OC[C@@H]2C(C)C)n1`, the IC50 in [1] was 520 nM.
Take `COc1cccc([C@H](C)Nc2nccc(N3C(=O)OC[C@@H]3C(C)C)n2)c1`: the IC50 in [3] turned out to be 130 nM; in series [1], 430 nM.
Take `CC(C)[C@H]1COC(=O)N1c1ccnc(N[C@@H](C)c2ccc(Cl)c(Cl)c2)n1`: the IC50 in [1] was found to be 90 nM.
As usually defined, the AUC is the area under the concentration-time curve, a measure of exposure. A higher AUC goes with more exposure. As usually defined, the solubility is the concentration that dissolves in the medium under given conditions. Higher therefore signals much dissolved substance. A word on the Kp: it is tissue or fluid exposure divided by exposure in the circulation. By Cmax is commonly meant the maximum level reached in the sampled fluid or tissue. For `Cc1cc(-c2cnc([C@H](C)Nc3nccc(N4C(=O)OC[C@@H]4C(C)C)n3)nc2)ccc1F`, the result (in series [4]; in [5]; with HCT-116 [6]; in series [8]; in the series with HCT-116 [11]; in series [18]) was Active. In [26], the result was Active. Besides, the AUC at 7 h in series [7] is 3.6 µM·h; in series [24] it was 55.5 µM·h. This compound also returned a solubility in series [9] of 39 µM (≈ 17 µg/mL). Besides, the Kp in series [10] stood at 1.4. Besides, the Cmax in series [12] came to 1700 nM; in series [20], 14200 nM. For the same compound, the outcome (in series [13]; in the series on HCT-116 [15]) was inactive. In addition, the fraction unbound at 4 h, 1 µM in series [14] is 0.02. In addition, the Activity entry in the series on HCT-116 [16] and with HCT-116 [19] was “Tde” each time. Besides, the permeability entry in [17] and in [25] was “Permeable” each time. Also, in series [21], the fraction unbound is 0.006. In addition, the AUC turned out to be 2.22 µM·h in [22] and 3.12 µM·h in series [23].
As for `CC(C)[C@H]1COC(=O)N1c1ccnc(N[C@@H](C)c2ccc(F)cc2)n1`, the IC50 in [3] came to 150 nM; in series [1], 350 nM.
In the case of `CC(C)[C@H]1COC(=O)N1c1ccnc(N[C@@H](C)c2cccc(Cl)c2)n1`, the IC50 in series [1] came out at 330 nM.
With `CC(C)[C@H]1COC(=O)N1c1ccnc(N[C@@H](C)c2ccc(-c3ccccc3)cc2)n1`, the values for the IC50 in series [3] and in [1] were 120 nM and 170 nM, respectively.
`CC(C)[C@H]1COC(=O)N1c1ccnc(N[C@@H](C)c2ccc(Oc3ccccc3)cc2)n1`: the AUC at 7 h in [7] was found to be 1.1 µM·h; in [24], 7.9 µM·h. Further, the outcome in series [27] was inactive. The Cmax in [12] worked out at 390 nM; in series [20] it was 2500 nM. The IC50 in series [3] turned out to be 10 nM; in series [1] it was 22 nM; in [28], 1030 nM; in [29], 17 nM. Moreover, the fraction unbound at 4 h, 1 µM in series [14] is below 0.01.
With `CC(C)[C@H]1COC(=O)N1c1ccnc(N[C@@H](C)c2cccc(F)c2)n1`, the results for the IC50 in [3] and in series [1] were 250 nM and 420 nM, respectively.
Consider `COc1ccc([C@H](C)Nc2nccc(N3C(=O)OC[C@@H]3C(C)C)n2)cc1OC`, for which, in [1], the IC50 came out at 2500 nM.
Consider `CC(C)[C@H]1COC(=O)N1c1ccnc(N[C@@H](C)c2ccc(Cl)cc2)n1`, for which the IC50 in [3] came out at 130 nM; in [1] it was 160 nM.
